In patent US20130267474A1, “NOVEL PHYTOCHEMICALS FROM EXTRACTS OF MAPLE SYRUPS AND MAPLE TREES AND USES THEREOF” (UNIVERSITY OF RHODE ISLAND, priority 2010, published 2013):
Converted amounts (≈) assume the structure as drawn. Read-outs that look alike come from different tables or passages of the source.

Legend:
[1] = tested on: CCD-18Co (normal human colon fibroblasts); assay: MTS cytotoxicity / antiproliferative assay; type: cell-based; settings: 72 h; for CCD-18Co 72 h IC50: ginnalins
Protocol: (§1) Cell lines included three human colon cancer cells: HT-29 (human colon adenocarcinoma), HCT116 (human colon carcinoma) and Caco-2 (human epithelial colorectal adenocarcinoma). In addition, normal human colon cells are included: CCD-^18Co (human colon fibroblasts). All cell lines are obtained from the American Type Culture Collection (ATCC, Rockville, Md., USA) and maintained at the University of Rhode Island.
(§2) The assay is carried out to measure the IC50 values for samples. […] Test samples and a positive control, etoposide 4 mg/mL (Sigma), are solubilized in DMSO by sonication. […] Control wells are also included on all plates. […] Each point on the curve is […]. Data (see tables 6 to 9) are expressed as mean±SE for three replications on each cell line.

[2] = tested on: Caco-2 (human epithelial colorectal adenocarcinoma); assay: MTS cytotoxicity / antiproliferative assay; type: cell-based; settings: for Caco-2 48 h IC50 / Caco-2 72 h IC50: ginnalins
Protocol: as §1, §2

[3] = tested on: HT-29 (human colon adenocarcinoma); assay: MTS cytotoxicity / antiproliferative assay; type: cell-based; settings: for HT-29 48 h IC50 / HT-29 72 h IC50: ginnalins
Protocol: as §1, §2

[4] = tested on: HCT-116 (human colon carcinoma); assay: MTS cytotoxicity / antiproliferative assay; type: cell-based; settings: for HCT-116 48 h IC50 / HCT-116 72 h IC50: ginnalins
Protocol: as §1, §2

[5] = DPPH radical scavenging (antioxidant) assay; type: biochemical; settings: Table 10; mean ± standard deviation; 30 min, 515 nm; read-out: IC50 (μM), DPPH radical scavenging
Protocol: The DPPH radical scavenging activity of ascorbic acid (vitamin C) and the synthetic commercial antioxidant, butylated hydroxytoluene (BHT) are also assayed as positive controls (see Table 10). […] Absorbance is determined after 30 min at 515 nm, and the scavenging capacity (SC) is calculated as SC %=[(A0−A1/A0)]×100, where A0 is the absorbance of the reagent blank and A1 is the absorbance of the test samples. The control contained all reagents except the compounds, and all tests are performed in triplicate.
Absorbance is determined after 30 min at 515 nm, and the scavenging capacity (SC) is calculated as SC %=[(A0−A1/A0)]×100 where A0 is the absorbance of the reagent blank, and A1 is the absorbance with test samples. The control contained all reagents except the compounds and all tests are performed in triplicate.

[6] = tested on: colon cancer (HCT-116, Caco-2 and HT-29) cell lines; assay: MTS antiproliferative assay, statements pooled over the colon cancer cell lines; settings: Homo sapiens, read-out: IC50 range, MTS assay, ginnalins, colon cell lines
[7] = Homo sapiens, CCD-18Co, pure isolated compounds, read-out: Antiproliferative activity CCD-8Co 72 h (IC50)
[8] = Homo sapiens, Caco-2, 48 h, read-out: Antiproliferative activity Caco-2 48 h (IC50), 48 h, pure isolated compounds
[9] = Homo sapiens, Caco-2, 72 h, 72 h, pure isolated compounds, read-out: Antiproliferative activity Caco-2 72 h (IC50)
[10] = Homo sapiens, HT-29, 48 h, read-out: Antiproliferative activity HT-29 48 h (IC50), 48 h, pure isolated compounds
[11] = Homo sapiens, HT-29, 72 h, 72 h, pure isolated compounds, read-out: Antiproliferative activity HT-29 72 h (IC50)
[12] = Homo sapiens, HCT-116, 48 h, read-out: Antiproliferative activity HCT-116 48 h (IC50), 48 h, pure isolated compounds
[13] = Homo sapiens, HCT-116, 72 h, 72 h, pure isolated compounds, read-out: Antiproliferative activity HCT-116 72 h (IC50)
[14] = Homo sapiens, HCT-116, 72 h, 72 h, range given for the group, read-out: IC50 against HCT-116 cells at 72 h (activity ranking)
[15] = Homo sapiens, CCD-18Co, Table 6 maple compounds, unit inferred, read-out: CCD-18Co 72 h(IC50)
[16] = Homo sapiens, Caco-2, 48 h, read-out: Caco-2 48 h(IC50), Table 6 maple compounds, 48 h, unit inferred
[17] = Homo sapiens, Caco-2, 72 h, Table 6 maple compounds, 72 h, unit inferred, read-out: Caco-2 72 h(IC50)
[18] = Homo sapiens, HT-29, 48 h, read-out: HT-29 48 h(IC50), Table 6 maple compounds, 48 h, unit inferred
[19] = Homo sapiens, HT-29, 72 h, Table 6 maple compounds, 72 h, unit inferred, read-out: HT-29 72 h(IC50)
[20] = Homo sapiens, HCT-116, 48 h, read-out: HCT-116 48 h(IC50), Table 6 maple compounds, 48 h, unit inferred
[21] = Homo sapiens, HCT-116, 72 h, Table 6 maple compounds, 72 h, unit inferred, read-out: HCT-116 72 h(IC50)
[22] = Homo sapiens, HCT-116, 72 h, 72 h, range given for the group, unit inferred, read-out: IC50 against HCT-116 cells at 72 h (moderately active group)

Row | IC50 [5] | Structure (SMILES) | IC50 [1, 7] | IC50 [2, 8] | IC50 [2, 9] | IC50 [3, 10] | IC50 [3, 11] | IC50 [4, 12] | IC50 [4, 13] | IC50 [4, 14] | IC50 [2, 16] | IC50 [2, 17] | IC50 [3, 18] | IC50 [3, 19] | IC50 [4, 20] | IC50 [4, 21] | also measured
1 |  | O=C(OC[C@H]1OC[C@H](OC(=O)c2cc(O)c(O)c(O)c2)[C@@H](O)[C@@H]1O)c1cc(O)c(O)c(O)c1 [Ginnalin A] |  |  |  |  |  |  |  |  |  |  |  |  |  |  | CCD-18Co 72 h IC50 [1]: 46.6 ± 3.6 µg/mL; Caco-2 48 h IC50 ([2]; 48 h): 28.8 ± 1.8 µg/mL; Caco-2 72 h IC50 ([2]; 72 h): 21.7 ± 1.0 µg/mL; HT-29 48 h IC50 ([3]; 48 h): 31.0 ± 2.6 µg/mL; HT-29 72 h IC50 ([3]; 72 h): 24.1 ± 1.3 µg/mL; HCT-116 48 h IC50 ([4]; 48 h): 21.5 ± 1.6 µg/mL; HCT-116 72 h IC50 ([4]; 72 h): 16.3 ± 2.1 µg/mL
2 | 1540.9 ± 0.5 µM | COc1cc(CC(CO)C(CO)Cc2ccc(O)c(OC)c2)ccc1O (stereo not shown) [compound 2, secoisolariciresinol] | 99.6 ± 4.9 µM | 85 ± 3.8 µM | 70.9 ± 2.3 µM | 88.7 ± 2.2 µM | 68.2 ± 1.4 µM | 78 ± 2.3 µM | 59.1 ± 1.5 µM | 42 to 67 µM |  |  |  |  |  |  | 
3 |  | COc1cc(C2Oc3c(OC)cc(CCCO)cc3C2CO)cc(OC)c1O (stereo not shown) [compound 4] |  |  |  |  |  |  |  |  | 85 µM | 70.9 µM | 88.7 µM | 68.2 µM | 78 µM | 59.1 µM | IC50 [1, 15]: 99.6 µM
4 | 740.2 ± 3.4 µM | COc1ccc(C2OC(=O)C(O)(Cc3ccc(OC4OC(C)C(O)C(O)C4O)c(OC)c3)C2CO)cc1OC [compound 7, [3-[4-[(6-deoxy-α-L-mannopyranosyl)oxy]-3-methoxyphenyl]methyl]-5-(3,4-dimethoxyphenyl)dihydro-3-hydroxy-4-(hydroxymethyl)-2(3H)-furanone] |  |  |  |  |  |  |  |  |  | 96.8 µM |  | 98.2 µM |  | 103 µM | 
5 | 655 ± 14.4 µM | COc1cc2ccc(=O)oc2cc1O [compound 8, scopoletin] | 103 ± 5.9 µM | 89.3 ± 0.9 µM | 82 ± 2 µM | 78.7 ± 1.2 µM | 70 ± 1.3 µM | 68.1 ± 1 µM | 60.6 ± 2 µM | 42 to 67 µM | 89.3 µM | 82 µM | 78.7 µM | 70.2 µM | 68.1 µM | 60.6 µM | IC50 [1, 15]: 103 µM
6 | 479 ± 42.1 µM | COc1cc2ccc(=O)oc2c(O)c1O [compound 9, fraxetin] |  |  | 101 ± 1.3 µM | 101 ± 1.2 µM | 93.4 ± 2.6 µM | 112 ± 1.8 µM | 84.5 ± 1.6 µM |  |  | 101 µM | 101 µM | 93.4 µM | 112 µM | 84.5 µM | IC50 [4, 22]: 75 to 85 µM
7 | 422.9 ± 2.4 µM | O=C(CO)c1ccc(O)c(O)c1 [compound 11, 2-hydroxy-3′,4′-dihydroxyacetophenone] |  |  |  |  |  |  |  |  | 92.5 µM | 86 µM |  |  |  |  | 
8 |  | O=Cc1ccc(O)c(O)c1 [compound 14, catechaldehyde] | 126 ± 4.6 µM | 73.2 ± 1.3 µM | 58.9 ± 1.9 µM | 71.6 ± 1.5 µM | 63.9 ± 1.6 µM | 63.3 ± 1.3 µM | 52.9 ± 1.4 µM | 42 to 67 µM | 73.2 µM | 58.9 µM | 71.6 µM | 63.9 µM | 63.3 µM | 52.9 µM | IC50 [1, 15]: 126 µM
9 | 138 ± 28.2 µM | COc1cc(C(=O)C(O)CO)ccc1O (stereo not shown) [compound 22, C-veratroylglycol] |  | 101 ± 1.6 µM | 90.8 ± 1 µM | 96 ± 1.5 µM | 88.6 ± 1.3 µM | 82.9 ± 2.1 µM | 66.7 ± 1.5 µM | 42 to 67 µM | 101 µM | 90.8 µM | 96 µM | 88.6 µM | 82.9 µM | 66.7 µM | 
10 |  | Oc1ccccc1O [compound 23, catechol] | 115 ± 2.7 µM | 71.5 ± 2.3 µM | 64.1 ± 2.5 µM | 99.4 ± 2.1 µM | 70.3 ± 2 µM | 86 ± 2.4 µM | 63 ± 1.3 µM | 42 to 67 µM |  |  |  |  |  |  | 
11 |  | OCCc1ccc(O)cc1 [compound 50, tyrosol] | 145 ± 4.1 µM | 112 ± 1.9 µM | 100 ± 2.6 µM | 128 ± 2.3 µM | 114 ± 1.8 µM | 115 ± 1.5 µM | 94.3 ± 1.8 µM | 94 to 110 µM |  |  |  |  |  |  | 
12 |  | COc1cc(C(CO)C(c2ccc(O)c(OC)c2)c2ccc(O)c(OC)c2)ccc1O (stereo not shown) [compound 54, Quebecol] | 120 ± 1.5 µM | 98.2 ± 1.5 µM | 78.5 ± 1.4 µM | 103 ± 1.7 µM | 86.1 ± 0.8 µM | 95.3 ± 0.6 µM | 76.2 ± 1.2 µM |  |  |  |  |  |  |  | IC50 [4, 22]: 75 to 85 µM
13 |  | O=C(OC[C@H]1OC[C@H](OC(=O)c2cc(O)c(O)c(O)c2)[C@@H](O)[C@@H]1O)c1cc(O)c(O)c(O)c1 [compound 70, 2,6-di-O-galloyl-1,5-anhydro-D-glucitol] |  |  |  |  |  |  |  |  | 61.6 µM | 46.5 µM | 77 µM | 51.6 µM | 54.6 µM | 43.4 µM | IC50 [1, 15]: 90.6 µM; IC50 [6]: 16 to 24 µg/mL (≈ 34.2 to 51.2 µM)
14 |  | O=C(OC[C@H]1OC[C@H](O)[C@@H](O)[C@@H]1O)c1cc(O)c(O)c(O)c1 [compound 71, ginnalin-B] |  |  |  |  |  |  |  |  |  |  |  |  |  |  | CCD-18Co 72 h IC50 [1]: 47.1 ± 5.3 µg/mL; IC50 ([1]; Table 6 maple compounds, unit inferred, read-out: CCD-18Co 72 h(IC50)): 107 µM; Caco-2 48 h IC50 ([2]; 48 h): 31.1 ± 1.9 µg/mL; Caco-2 72 h IC50 ([2]; 72 h): 22.6 ± 1.9 µg/mL; IC50 ([2]; Table 6 maple compounds, 72 h, unit inferred, read-out: Caco-2 72 h(IC50)): 71.6 µM; IC50 ([2]; read-out: Caco-2 48 h(IC50), Table 6 maple compounds, 48 h, unit inferred): 98.7 µM; HT-29 48 h IC50 ([3]; 48 h): 36.2 ± 1.5 µg/mL; HT-29 72 h IC50 ([3]; 72 h): 27.3 ± 0.6 µg/mL; IC50 ([3]; Table 6 maple compounds, 72 h, unit inferred, read-out: HT-29 72 h(IC50)): 86.5 µM; IC50 ([3]; read-out: HT-29 48 h(IC50), Table 6 maple compounds, 48 h, unit inferred): 98.9 µM; HCT-116 48 h IC50 ([4]; 48 h): 25.1 ± 1.8 µg/mL; HCT-116 72 h IC50 ([4]; 72 h): 20.0 ± 2.0 µg/mL; IC50 ([4]; Table 6 maple compounds, 72 h, unit inferred, read-out: HCT-116 72 h(IC50)): 50.9 µM; IC50 ([4]; read-out: HCT-116 48 h(IC50), Table 6 maple compounds, 48 h, unit inferred): 66.8 µM
